Here are results for 9 molecules from ChEMBL document CHEMBL1153636, “The phosphoramidate ProTide approach greatly enhances the activity of beta-2'-C-methylguanosine against hepatitis C virus” (Bioorg Med Chem Lett, 2009).

The nature of series [1]: Cytotoxicity against human Huh5-2 cells. It is filed as cell-based, Huh-5-2.
Series [2] concerns carboxypeptidase. Kind of series: Stability in presence of carboxypeptidase assessed as parent ProTide compound remaining. The format is ADME.
The test system of series [3] is Hepatitis C virus. Nature of the series: Antiviral activity against HCV assessed as inhibition of viral replicon replication in human Huh5-2 cells. It is filed as functional, organism-based, Hepacivirus hominis. The note with it: Huh-5-2. A general note: In antiviral work, replicon cells carry a viral genome segment that copies itself.
The subject of series [4] is carboxypeptidase. Kind of series: Stability in presence of carboxypeptidase assessed as parent ProTide compound remaining after 10 mins. It is filed as ADME. Particulars: read-out: Stability.
A short description of series [5]: Inhibition of HCV RNA-dependent RNA polymerase. Also noted: species or system Hepacivirus hominis.
In series [6] the test system is Hepatitis C virus. Nature of the series: Antiviral activity against HCV by viral replicon assay. The format is functional, organism-based, Hepacivirus hominis.
Series [7] deals with carboxypeptidase. Kind of series: Stability in presence of carboxypeptidase assessed as parent ProTide compound remaining after 13 hrs. The format is ADME. Particulars: read-out: Stability.

On to `C[C@H](NP(=O)(OC[C@H]1O[C@@H](n2cnc3c(=O)[nH]c(N)nc32)[C@](C)(O)[C@@H]1O)Oc1cccc2ccccc12)C(=O)OCc1ccccc1` (some centres undefined), for which the CC50 in series [1] is > 50 µM. Moreover, the half-life in series [2] stood at 0.05 h. The EC50 in series [3] stood at 0.12 µM. Further, the remaining at 10 min in series [4] is 7%.

Consider `C[C@@]1(O)[C@H](O)[C@@H](CO)O[C@H]1n1cnc2c(N)ncnc21`, for which the CC50 in series [1] is > 50 µM. In series [3], the EC50 was 0.25 µM.

As to `COC(=O)[C@H](C)NP(=O)(OC[C@H]1O[C@@H](n2cnc3c(=O)[nH]c(N)nc32)[C@](C)(O)[C@@H]1O)Oc1cccc2ccccc12` (some centres undefined), the CC50 in series [1] was > 50 µM. For the same molecule, the EC50 in series [3] was 0.23 µM.

In the case of `C[C@@]1(O)[C@H](O)[C@@H](CO)O[C@H]1n1cnc2c(=O)[nH]c(N)nc21` [2'-B-METHYL-GUANOSINE], the half-maximal cytotoxic concentration (CC50) in series [1] is > 50 µM. The IC50 in series [5] came to 0.13 µM. Further, the EC50 came to 10.1 µM in series [3] and 3.5 µM in series [6].

Consider `C[C@H](NP(=O)(OC[C@H]1O[C@@H](n2cnc3c(=O)[nH]c(N)nc32)[C@](C)(O)[C@@H]1O)Oc1cccc2ccccc12)C(=O)OC(C)(C)C` (some centres undefined), for which the CC50 in series [1] was > 50 µM. For the same molecule, the half-life in series [2] is 33 h. The remaining at 13 h in series [7] is 24%. For the same molecule, in series [3], the EC50 was determined as 27 µM.

Take `CCOC(=O)[C@H](C)NP(=O)(OC[C@H]1O[C@@H](n2cnc3c(=O)[nH]c(N)nc32)[C@](C)(O)[C@@H]1O)Oc1cccc2ccccc12` (some centres undefined): in series [1], the CC50 was > 50 µM. The EC50 in series [3] is 0.28 µM.

In the case of `C[C@H](NP(=O)(OC[C@H]1O[C@@H](n2cnc3c(N)ncnc32)[C@](C)(O)[C@@H]1O)Oc1cccc2ccccc12)C(=O)OC(C)(C)C` (some centres undefined), the CC50 in series [1] was > 50 µM. For the same molecule, the EC50 in series [3] was 4.18 µM.

As to `C[C@H](NP(=O)(OC[C@H]1O[C@@H](n2cnc3c(N)ncnc32)[C@](C)(O)[C@@H]1O)Oc1cccc2ccccc12)C(=O)OCc1ccccc1` (some centres undefined), the CC50 in series [1] is > 50 µM. In addition, the EC50 in series [3] came to 0.27 µM.

Take `CCOC(=O)[C@H](C)NP(=O)(OC[C@H]1O[C@@H](n2cnc3c(N)ncnc32)[C@](C)(O)[C@@H]1O)Oc1cccc2ccccc12` (some centres undefined): the CC50 in series [1] is > 50 µM. Further, the half-maximal effective concentration (EC50) in series [3] stood at 0.24 µM.

A word on the CC50: it is the concentration that lowers cell viability or growth by half. A low value points to harm at low concentration. The term half-life denotes the time in which the quantity being followed falls by half. As usually defined, the EC50 is the concentration that produces a half-maximal response. The IC50 is the midpoint of a concentration-inhibition curve. A lower IC50 goes with inhibition by little substance.
